This note sets out measurements from ChEMBL document CHEMBL5393459, “O-linked thiadiazolyl compounds as dna polymerase theta inhibitors” (2022).

This test concerns the target DNA polymerase theta (Homo sapiens, UniProt O75417). As to the kind of experiment: Inhibition of human DNA polymerase theta (1 to 899 residues) ATPase activity using dT50 single strand DNA as substrate by NADH oxidation-coupled enzymatic assay.

Sequence of DNA polymerase theta (O75417 whole entry, the tested form may be a part): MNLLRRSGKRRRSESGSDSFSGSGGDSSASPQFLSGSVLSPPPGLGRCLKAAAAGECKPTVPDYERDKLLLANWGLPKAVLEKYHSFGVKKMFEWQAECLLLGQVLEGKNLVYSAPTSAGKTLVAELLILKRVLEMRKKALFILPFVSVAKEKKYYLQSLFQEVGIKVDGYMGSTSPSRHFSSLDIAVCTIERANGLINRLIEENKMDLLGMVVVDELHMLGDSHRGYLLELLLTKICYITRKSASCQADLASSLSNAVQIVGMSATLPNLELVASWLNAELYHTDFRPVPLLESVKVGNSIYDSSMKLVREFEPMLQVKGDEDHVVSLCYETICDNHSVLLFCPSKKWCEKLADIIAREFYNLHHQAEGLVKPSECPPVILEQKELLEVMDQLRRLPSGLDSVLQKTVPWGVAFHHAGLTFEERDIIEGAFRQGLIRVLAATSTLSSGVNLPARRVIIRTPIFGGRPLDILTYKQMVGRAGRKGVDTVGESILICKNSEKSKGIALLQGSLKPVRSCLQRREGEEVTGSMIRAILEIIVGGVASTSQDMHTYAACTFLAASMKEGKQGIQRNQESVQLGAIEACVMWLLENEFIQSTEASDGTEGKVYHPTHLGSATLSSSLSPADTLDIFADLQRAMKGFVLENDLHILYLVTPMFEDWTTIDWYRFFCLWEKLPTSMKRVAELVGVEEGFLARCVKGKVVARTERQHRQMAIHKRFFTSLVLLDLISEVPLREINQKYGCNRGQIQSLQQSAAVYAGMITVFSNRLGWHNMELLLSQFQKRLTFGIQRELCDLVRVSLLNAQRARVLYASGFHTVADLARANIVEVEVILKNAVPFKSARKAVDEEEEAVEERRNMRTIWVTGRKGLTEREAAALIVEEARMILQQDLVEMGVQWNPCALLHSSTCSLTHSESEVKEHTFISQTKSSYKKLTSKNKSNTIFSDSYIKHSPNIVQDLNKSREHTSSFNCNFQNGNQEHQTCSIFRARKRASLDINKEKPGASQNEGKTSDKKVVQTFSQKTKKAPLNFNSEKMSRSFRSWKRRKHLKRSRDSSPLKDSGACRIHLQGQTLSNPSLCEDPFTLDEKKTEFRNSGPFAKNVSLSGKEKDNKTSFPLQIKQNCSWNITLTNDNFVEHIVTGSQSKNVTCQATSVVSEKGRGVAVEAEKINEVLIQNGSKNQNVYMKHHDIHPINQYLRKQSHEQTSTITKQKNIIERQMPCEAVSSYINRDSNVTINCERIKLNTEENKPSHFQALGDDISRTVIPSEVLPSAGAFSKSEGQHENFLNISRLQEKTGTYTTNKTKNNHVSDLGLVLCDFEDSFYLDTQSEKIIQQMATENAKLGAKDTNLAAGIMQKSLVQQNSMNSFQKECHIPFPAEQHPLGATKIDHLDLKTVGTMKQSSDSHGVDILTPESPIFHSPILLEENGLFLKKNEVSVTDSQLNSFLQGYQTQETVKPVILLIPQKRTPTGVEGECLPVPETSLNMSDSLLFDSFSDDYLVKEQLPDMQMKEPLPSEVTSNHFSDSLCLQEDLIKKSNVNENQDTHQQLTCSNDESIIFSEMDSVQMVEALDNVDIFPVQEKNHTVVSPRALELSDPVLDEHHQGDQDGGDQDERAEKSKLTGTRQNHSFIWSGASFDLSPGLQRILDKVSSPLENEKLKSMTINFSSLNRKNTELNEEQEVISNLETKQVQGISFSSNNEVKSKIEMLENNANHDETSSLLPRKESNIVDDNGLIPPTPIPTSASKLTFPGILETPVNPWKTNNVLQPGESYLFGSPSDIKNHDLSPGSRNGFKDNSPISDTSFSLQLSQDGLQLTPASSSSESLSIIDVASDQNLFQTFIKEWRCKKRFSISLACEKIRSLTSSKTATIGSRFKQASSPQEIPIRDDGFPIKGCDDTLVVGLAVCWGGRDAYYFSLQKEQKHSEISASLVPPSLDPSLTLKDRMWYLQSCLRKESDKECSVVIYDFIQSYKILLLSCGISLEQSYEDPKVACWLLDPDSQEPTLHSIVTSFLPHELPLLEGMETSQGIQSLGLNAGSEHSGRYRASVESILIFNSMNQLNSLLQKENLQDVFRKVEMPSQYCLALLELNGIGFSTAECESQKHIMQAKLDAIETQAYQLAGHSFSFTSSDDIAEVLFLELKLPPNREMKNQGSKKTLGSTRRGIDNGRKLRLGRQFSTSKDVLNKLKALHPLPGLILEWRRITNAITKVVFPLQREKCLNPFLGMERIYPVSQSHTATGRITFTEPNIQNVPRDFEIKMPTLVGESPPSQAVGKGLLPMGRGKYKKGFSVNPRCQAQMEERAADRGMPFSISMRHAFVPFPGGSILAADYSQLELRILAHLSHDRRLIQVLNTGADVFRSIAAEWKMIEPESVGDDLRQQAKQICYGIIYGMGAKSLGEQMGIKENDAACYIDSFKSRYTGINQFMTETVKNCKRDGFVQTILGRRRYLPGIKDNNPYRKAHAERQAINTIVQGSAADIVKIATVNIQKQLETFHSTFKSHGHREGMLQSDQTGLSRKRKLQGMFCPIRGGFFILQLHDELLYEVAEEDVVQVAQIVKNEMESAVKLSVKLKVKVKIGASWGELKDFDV

Usually IC50 stands for the concentration needed to halve the response being measured. Take `COc1nnc(NC(=O)c2cnc(C)cc2-c2c(OC)ccc3scnc23)s1`: the IC50 is > 10 µM.
